In publication PMC11539907, “Cytotoxicity of norstictic acid derivatives, a depsidone from Ramalina anceps Nyl” (Turkish Journal of Chemistry, 2024):
“Also recorded” adds a separate entry of the source. Read-outs that look alike come from different tables or passages of the source.

Tests used:
[1] = test system: 786-0 (kidney carcinoma) cells; assay: sulforhodamine B (SRB) cytotoxicity assay, 786-0; type: cell-based; conditions: for selectivity index (SI): GI50 on 3T3 cells divided by GI50 on 786-0; for GI50: Homo sapiens, 786-0 cells, SRB assay, read-out: growth inhibition (GI50)
Text: (§1) MCF7 (ATCC HTB-22, breast adenocarcinoma), 786-0 (ATCC CRL-1932, renal cell adenocarcinoma), PC-03 (ATCC CRL-1435, prostatic adenocarcinoma), HT-29 (ATCCHTB-38, colorectal adenocarcinoma), and HEP2 (ATCC CCL-23, laryngeal carcinoma) cells donated by Dr. João Ernesto de Carvalho (CPQBA – UNICAMP), and NIH/3T3 cells (ATCC CRL-1658, mouse embryonic fibroblast), purchased from the Rio de Janeiro Cell Bank, were used for the evaluation of cytotoxic activity. Cell maintenance and treatment were performed as described by Freshney. The sulforhodamine B (SRB) assay was carried out according to Brandão et al. and Bogo et al..
(§2) The selectivity index (SI) measures a compound’s ability to target a neoplastic cell line rather than a normal cell line, indicating its potential for use in clinical trials. In the present study, the SI of each substance was calculated as the quotient of its GI50 value for normal NIH/3T3 cells divided by the GI50 value for a neoplastic cell line. SI values greater than 3.0 were considered significant.

[2] = test system: MCF7 (breast carcinoma) cells; assay: sulforhodamine B (SRB) cytotoxicity assay, MCF7; type: cell-based; conditions: for selectivity index (SI): GI50 on 3T3 cells divided by GI50 on MCF7; for GI50: Homo sapiens, MCF7 cells, SRB assay, read-out: growth inhibition (GI50)
Text: as §1, §2

[3] = test system: HT-29 (colon carcinoma) cells; assay: sulforhodamine B (SRB) cytotoxicity assay, HT-29; type: cell-based; conditions: for selectivity index (SI): GI50 on 3T3 cells divided by GI50 on HT-29; for GI50: Homo sapiens, HT-29 cells, SRB assay, read-out: growth inhibition (GI50)
Text: as §1, §2

[4] = test system: PC-03 (prostate carcinoma) cells; assay: sulforhodamine B (SRB) cytotoxicity assay, PC-03; type: cell-based; conditions: for selectivity index (SI): GI50 on 3T3 cells divided by GI50 on PC-03; for GI50: PC-03 cells, SRB assay, read-out: growth inhibition (GI50)
Text: as §1, §2

[5] = test system: HEP2 (laryngeal carcinoma) cells; assay: sulforhodamine B (SRB) cytotoxicity assay, HEP2; type: cell-based; conditions: for selectivity index (SI): GI50 on 3T3 cells divided by GI50 on HEP2; for GI50: Homo sapiens, HEp-2, HEP2 cells, SRB assay, read-out: growth inhibition (GI50)
Text: as §1, §2

[6] = test system: B16-F10 (murine melanoma) cells; assay: sulforhodamine B (SRB) cytotoxicity assay, B16-F10; type: cell-based; conditions: for GI50: Mus musculus, B16-F10 cells, SRB assay, read-out: growth inhibition (GI50); for selectivity index (SI): GI50 on 3T3 cells divided by GI50 on B16-F10
Text: [Worded in the source for another cell line; this cell line is reported under the same test.] as §1, §2

[7] = test system: UACC-62 (human melanoma) cells; assay: sulforhodamine B (SRB) cytotoxicity assay, UACC-62; type: cell-based; conditions: for selectivity index (SI): GI50 on 3T3 cells divided by GI50 on UACC-62; for GI50: Homo sapiens, UACC-62 cells, SRB assay, read-out: growth inhibition (GI50)
Text: [Worded in the source for another cell line; this cell line is reported under the same test.] as §1, §2

[8] = test system: NIH/3T3 (mouse embryonic fibroblast) cells; assay: sulforhodamine B (SRB) cytotoxicity assay, NIH/3T3 normal cells; type: cell-based; conditions: for GI50: Mus musculus, NIH3T3, NIH/3T3 normal cells, SRB assay, read-out: growth inhibition (GI50); for effect on normal cells in words: 3T3 cells
Text: as §1, §2

[9] = test system: tested tumor cells (786-0, MCF7, HT-29, PC-03, HEP2, B16-F10, UACC-62); assay: sulforhodamine B (SRB) cytotoxicity assay, results stated over several cell lines; type: cell-based; conditions: for cytotoxic activity in words: cell lines as named in the quoted words; for selectivity index (SI), range over all tumor cells: all tested tumor cells vs NIH/3T3
Text: as §1, §2

[10] = all tested tumor cells, read-out: GI50, range over all tumor cells
[11] = listed as 8′-O-isopropyl-norstictic acid

| SMILES | selectivity index (SI) [1] | GI50 [1] [µM] | selectivity index (SI) [2] | GI50 [2] [µM] | selectivity index (SI) [3] | GI50 [3] [µM] | selectivity index (SI) [4] | GI50 [4] [µM] | selectivity index (SI) [5] | GI50 [5] [µM] | GI50 [6] [µM] | selectivity index (SI) [7] | GI50 [7] [µM] | GI50 [8] [µM] | cytotoxic activity in words [9] | melting point [°C] | selectivity index (SI) [6] | other results |
| --- | --- | --- | --- | --- | --- | --- | --- | --- | --- | --- | --- | --- | --- | --- | --- | --- | --- | --- |
| CCCOC1OC(=O)c2c(O)c(C)c3c(c21)Oc1c(C=O)c(O)cc(C)c1C(=O)O3 (stereo not drawn) [compound 2, 8′-O-n-propyl-norstictic acid] | 0.43 | 140 | 0.15 | 410 | 0.13 | 470 | 2.03 | 30 | 0.94 | 70 | > 600 | 1.2 | 50 | 63 | did not show activity against the tested tumor cells; also recorded: comparatively low activity against the cancerous cell lines | 183 | – | selectivity index (SI) ([4]; listed as n-propyl): 33.8; GI50 ([4]; listed as n-propyl): 1.28 µM |
| CCCCOC1OC(=O)c2c(O)c(C)c3c(c21)Oc1c(C=O)c(O)cc(C)c1C(=O)O3 (stereo not drawn) [compound 3, 8′-O-n-butyl-norstictic acid] | 22.21 | 28.2 | 47.15 | 13.3 | 16.34 | 38.3 | 98.11 | 6.37 | 78.77 | 7.94 | 45 | 54.1 | 11.5 | 625 | – | 169 | 13.88 | effect on normal cells in words [8]: lowest effect on 3T3 cells; selectivity index (SI), range over all tumor cells [9]: 13.88–98.11; GI50 [9, 10]: 6.37 to 45 µM |
| CCCCCOC1OC(=O)c2c(O)c(C)c3c(c21)Oc1c(C=O)c(O)cc(C)c1C(=O)O3 (stereo not drawn) [compound 4, 8′-O-n-pentyl-norstictic acid] | 0.75 | 76.2 | 3.69 | 15.5 | 1.50 | 38.2 | 6.53 | 8.77 | 1.19 | 48.2 | 55.4 | 1.51 | 37.8 | 57.2 | low biological activity | 175 | 1.03 | – |
| CCCCCCOC1OC(=O)c2c(O)c(C)c3c(c21)Oc1c(C=O)c(O)cc(C)c1C(=O)O3 (stereo not drawn) [compound 5, 8′-O-n-hexyl-norstictic acid] | 1.75 | 31.4 | 5.76 | 9.53 | 7.66 | 7.16 | 7.60 | 7.23 | 9.2 | 5.96 | 56.3 | 1.06 | 51.6 | 54.9 | showed activity against MCF7, HT-29, PC-03, and HEP2 cells | 178 | 0.97 | GI50 ([9]; MCF7, HT-29, PC-03, and HEP2 cells, read-out: GI50, range): 5.96 to 9.53 µM |
| Cc1cc(O)c(C=O)c2c1C(=O)Oc1c(C)c(O)c3c(c1O2)C(OC(C)C)OC3=O (stereo not drawn) [compound 6, 8′-O-isopropyl-norstictic acid] | 0.86 | 50.1 | 0.73 | 59.3 | 0.86 | 50.2 | 33.8 | 1.28 | 5.56 | 7.78 | 9.65 | 7.0 | 6.2 | 43.2 | active against PC-03, HEP2, B16-F10, and UACC-62 cells | 185 | 4.48 | selectivity index (SI) [5, 11]: 5.5; selectivity index (SI) [6, 11]: 4.5; selectivity index (SI), range ([9]; PC-03, HEP2, B16-F10, and UACC-62 cells vs NIH/3T3): 4.48 to 33.8; GI50 ([9]; PC-03, HEP2, B16-F10, and UACC-62 cells, read-out: GI50, range): 1.28 to 9.65 µM |
| CCC(C)OC1OC(=O)c2c(O)c(C)c3c(c21)Oc1c(C=O)c(O)cc(C)c1C(=O)O3 (stereo not drawn) [compound 7, 8′-O-sec-butyl-norstictic acid] | 27.78 | 21.4 | 87.4 | 6.8 | 48.3 | 12.3 | 11.30 | 52.4 | 78.0 | 7.6 | 9.2 | 20.2 | 29.4 | 594 | – | 170 | 64.4 | effect on normal cells in words [8]: lowest effect on 3T3 cells; selectivity index (SI), range over all tumor cells [9]: 11.30–87.40; GI50 [9, 10]: 6.8 to 52.4 µM |
| Cc1cc(O)c(C=O)c2c1C(=O)Oc1c(C)c(O)c3c(c1O2)C(OC(C)(C)C)OC3=O (stereo not drawn) [compound 8, 8′-O-tert-butyl-norstictic acid] | 0.6 | 63.3 | 0.6 | 64.2 | 0.28 | 139 | 5.0 | 7.6 | 0.66 | 57.8 | 90.3 | 0.57 | 67.1 | 38.5 | active only against PC-03 cells; also recorded: low biological activity | 196 | 0.42 | – |
